# Patent US10294202B2, “Pyrrolidinones as herbicides” (FMC Corporation, priority 2013, dated 2019)
# Tests used:
# barnyardgrass [1] = assay: Test A pre-/postemergence herbicide test; type: in vivo, Echinochloa crus-galli; conditions: for Barnyardgrass plant response rating: Preemergence, visual rating on 0 to 100 scale (0 no effect, 100 complete control)
# Outline: (§1)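 Both application timings used compounds in a non-phytotoxic solvent plus surfactant. Pre-emergence: soil sprayed directly after seeding into loam/sand. Post-emergence: foliage of 2–10 cm seedlings (1–2 leaves) sprayed. Injury rated ~10 days later, 0–100.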
# wheat = assay: Test A pre-/postemergence herbicide test; type: in vivo, Triticum aestivum; conditions: for Wheat plant response rating: Preemergence, visual rating on 0 to 100 scale (0 no effect, 100 complete control)
# Outline: as §1
# crabgrass, large = assay: Test A pre-/postemergence herbicide test; type: in vivo, Digitaria sanguinalis; conditions: for Crabgrass, Large plant response rating: Preemergence, visual rating on 0 to 100 scale (0 no effect, 100 complete control)
# Outline: as §1
# rice = assay: Test C flooded paddy test; type: in vivo, Oryza sativa; conditions: Flood
# Outline: (§2)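 Visual injury scored against controls after 13 to 15 days in the greenhouse, using 0 (no effect) to 100 (complete control). Test compounds went straight into paddy water held 3 cm above the soil surface on 2-leaf-stage plants, with that flood depth maintained for the whole test.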
# barnyardgrass [2] = assay: Test C flooded paddy test; type: in vivo, Echinochloa crus-galli; conditions: Flood
# Outline: as §2
# velvetleaf = assay: Test A pre-/postemergence herbicide test; type: in vivo, Abutilon theophrasti; conditions: for Velvetleaf plant response rating: Preemergence, visual rating on 0 to 100 scale (0 no effect, 100 complete control)
# Outline: as §1
# corn = assay: Test A pre-/postemergence herbicide test; type: in vivo, Zea mays; conditions: for Corn plant response rating: Preemergence, visual rating on 0 to 100 scale (0 no effect, 100 complete control)
# Outline: as §1
# pigweed = assay: Test A pre-/postemergence herbicide test; type: in vivo, Amaranthus retroflexus; conditions: for Pigweed plant response rating: Preemergence, visual rating on 0 to 100 scale (0 no effect, 100 complete control)
# Outline: as §1
# sedge, umbrella = assay: Test C flooded paddy test; type: in vivo, Cyperus difformis; conditions: Flood
# Outline: as §2
# morningglory = assay: Test A pre-/postemergence herbicide test; type: in vivo, Ipomoea spp.; conditions: for Morningglory plant response rating: Preemergence, visual rating on 0 to 100 scale (0 no effect, 100 complete control)
# Outline: as §1
# ducksalad = assay: Test C flooded paddy test; type: in vivo, Heteranthera limosa; conditions: Flood
# Text: Plant species in the flooded paddy test consisted of rice (Oryza sativa), sedge, umbrella (small-flower umbrella sedge, Cyperus difformis), ducksalad (Heteranthera limosa), and barnyardgrass (Echinochloa crus-galli) grown to the 2-leaf stage for testing. At time of treatment, test pots were flooded to 3 cm above the soil surface, treated by application of test compounds directly to the paddy water, and then maintained at that water depth for the duration of the test. Treated plants and controls were maintained in a greenhouse for 13 to 15 days, after which time all species were compared to controls and visually evaluated. Plant response ratings, summarized in Table C, are based on a scale of 0 to 100 where 0 is no effect and 100 is complete control. A dash (-) response means no test result.
# giant foxtail = assay: Test A pre-/postemergence herbicide test; type: in vivo, Setaria faberii; conditions: for Foxtail, Giant plant response rating: Preemergence, visual rating on 0 to 100 scale (0 no effect, 100 complete control)
# Outline: as §1
# [3] = Postemergence, 125 g ai/ha, 0 to 100 scale, 0 no effect, 100 complete control
# [4] = Postemergence, 500 g ai/ha, 0 to 100 scale (0 no effect, 100 complete control)
# [5] = preemergence, 500 g ai/ha, 0 to 100 scale (0 no effect, 100 complete control)
# [6] = preemergence, 500 g ai/ha, 0 to 100 scale
# [7] = 31 g ai/ha, scale of 0 to 100 where 0 is no effect and 100 is complete control, 13 to 15 days
# [8] = 62 g ai/ha, scale of 0 to 100 where 0 is no effect and 100 is complete control, 13 to 15 days
# [9] = 125 g ai/ha, scale of 0 to 100 where 0 is no effect and 100 is complete control, 13 to 15 days
smiles,measurement,setting,value
O=C1NCC(c2cccc(C(F)(F)F)c2)C1C(=O)Nc1ccccc1C(F)(F)F (racemic) [Compound 4],"Plant response rating, Barnyardgrass",barnyardgrass [1]; [3],60
same,"Plant response rating, Barnyardgrass",barnyardgrass [1]; [4],70
same,Barnyardgrass plant response rating,barnyardgrass [1]; 125 g ai/ha,60
same,"Plant response rating, Barnyardgrass",barnyardgrass [1]; [5],80
same,"Plant response rating, Wheat",wheat; [4],50
same,Wheat plant response rating,wheat; 125 g ai/ha,60
same,"Plant response rating, Wheat",wheat; [6],70
same,"Plant response rating, Crabgrass, Large","crabgrass, large; [3]",60
same,"Plant response rating, Crabgrass, Large","crabgrass, large; [4]",80
same,"Crabgrass, Large plant response rating","crabgrass, large; 125 g ai/ha",90
same,"Plant response rating, Crabgrass, Large","crabgrass, large; [6]",90
same,"Plant response rating, Rice",rice; [7],0
same,"Plant response rating, Rice",rice; [8],0
same,"Plant response rating, Rice",rice; [9],0
same,"Plant response rating, Rice","rice; 250 g ai/ha, scale 0 to 100",0
same,"Plant response rating, Barnyardgrass",barnyardgrass [2]; [7],0
same,"Plant response rating, Barnyardgrass",barnyardgrass [2]; [8],0
same,"Plant response rating, Barnyardgrass",barnyardgrass [2]; [9],30
same,"Plant response rating, Barnyardgrass","barnyardgrass [2]; 250 g ai/ha, scale 0 to 100",40
same,"Plant response rating, Velvetleaf",velvetleaf; [4],0
same,Velvetleaf plant response rating,velvetleaf; 125 g ai/ha,0
same,"Plant response rating, Velvetleaf",velvetleaf; [6],0
same,"Plant response rating, Corn",corn; [3],0
same,"Plant response rating, Corn",corn; [4],50
same,Corn plant response rating,corn; 125 g ai/ha,0
same,"Plant response rating, Corn",corn; [6],0
same,"Plant response rating, Pigweed",pigweed; [4],50
same,Pigweed plant response rating,pigweed; 125 g ai/ha,0
same,"Plant response rating, Pigweed",pigweed; [6],0
same,"Plant response rating, Sedge, Umbrella","sedge, umbrella; [7]",0
same,"Plant response rating, Sedge, Umbrella","sedge, umbrella; [8]",0
same,"Plant response rating, Sedge, Umbrella","sedge, umbrella; [9]",0
same,"Plant response rating, Sedge, Umbrella","sedge, umbrella; 250 g ai/ha, scale 0 to 100",0
same,"Plant response rating, Morningglory",morningglory; [4],30
same,Morningglory plant response rating,morningglory; 125 g ai/ha,0
same,"Plant response rating, Morningglory",morningglory; [6],0
same,"Plant response rating, Ducksalad",ducksalad; [7],20
same,"Plant response rating, Ducksalad",ducksalad; [8],30
same,"Plant response rating, Ducksalad",ducksalad; [9],80
same,"Plant response rating, Ducksalad","ducksalad; 250 g ai/ha, scale 0 to 100",85
same,"Plant response rating, Foxtail, Giant",giant foxtail; [3],60
same,"Plant response rating, Foxtail, Giant",giant foxtail; [4],70
same,"Foxtail, Giant plant response rating",giant foxtail; 125 g ai/ha,80
same,"Plant response rating, Foxtail, Giant",giant foxtail; [6],90
N#Cc1ccccc1NC(=O)C1C(=O)NCC1c1ccc(Cl)c(Cl)c1 (racemic) [Compound 15],"Plant response rating, Barnyardgrass",barnyardgrass [1]; [3],0
same,"Plant response rating, Barnyardgrass",barnyardgrass [1]; [4],0
same,Barnyardgrass plant response rating,barnyardgrass [1]; 125 g ai/ha,0
same,"Plant response rating, Barnyardgrass",barnyardgrass [1]; [5],0
same,"Plant response rating, Wheat",wheat; [3],0
same,"Plant response rating, Wheat",wheat; [4],0
same,Wheat plant response rating,wheat; 125 g ai/ha,0
same,"Plant response rating, Wheat",wheat; [6],0
same,"Plant response rating, Crabgrass, Large","crabgrass, large; [3]",0
same,"Plant response rating, Crabgrass, Large","crabgrass, large; [4]",0
same,"Crabgrass, Large plant response rating","crabgrass, large; 125 g ai/ha",60
same,"Plant response rating, Crabgrass, Large","crabgrass, large; [6]",80
same,"Plant response rating, Rice",rice; [8],0
same,"Plant response rating, Rice","rice; 250 g ai/ha, scale 0 to 100",0
same,"Plant response rating, Barnyardgrass",barnyardgrass [2]; [8],0
same,"Plant response rating, Barnyardgrass","barnyardgrass [2]; 250 g ai/ha, scale 0 to 100",0
same,"Plant response rating, Velvetleaf",velvetleaf; [3],0
same,"Plant response rating, Velvetleaf",velvetleaf; [4],0
same,Velvetleaf plant response rating,velvetleaf; 125 g ai/ha,0
same,"Plant response rating, Velvetleaf",velvetleaf; [6],0
same,"Plant response rating, Corn",corn; [3],0
same,"Plant response rating, Corn",corn; [4],0
same,Corn plant response rating,corn; 125 g ai/ha,0
same,"Plant response rating, Corn",corn; [6],0
same,"Plant response rating, Pigweed",pigweed; [3],0
same,"Plant response rating, Pigweed",pigweed; [4],0
same,Pigweed plant response rating,pigweed; 125 g ai/ha,0
same,"Plant response rating, Pigweed",pigweed; [6],0
same,"Plant response rating, Sedge, Umbrella","sedge, umbrella; [8]",0
same,"Plant response rating, Sedge, Umbrella","sedge, umbrella; 250 g ai/ha, scale 0 to 100",0
same,"Plant response rating, Morningglory",morningglory; [3],0
same,"Plant response rating, Morningglory",morningglory; [4],0
same,Morningglory plant response rating,morningglory; 125 g ai/ha,0
same,"Plant response rating, Morningglory",morningglory; [6],0
same,"Plant response rating, Ducksalad",ducksalad; [8],0
same,"Plant response rating, Ducksalad","ducksalad; 250 g ai/ha, scale 0 to 100",0
same,"Plant response rating, Foxtail, Giant",giant foxtail; [3],0
same,"Plant response rating, Foxtail, Giant",giant foxtail; [4],0
same,"Foxtail, Giant plant response rating",giant foxtail; 125 g ai/ha,20
same,"Plant response rating, Foxtail, Giant",giant foxtail; [6],50
